The results in this text go back to PMC4187121, “Flexible Enantioselectivity of Tryptophanase Attributable to Benzene Ring in Heterocyclic Moiety of D-Tryptophan” (Life : Open Access Journal, 2012).

“Also recorded” adds a separate entry of the source.

Experiment [1] deals with T1, tryptophanase (Escherichia coli, UniProt P0A853).
T1 construct: purchased Sigma-Aldrich Co. (St. Louis, MO, USA)
Kind of experiment: L-tryptophan degradation by tryptophanase, kinetic and inhibition analysis (indole formation, Ehrlich reagent). The settings on record: for effect on L-tryptophan degradation: in the absence and presence of DAP; for Ki: read-out: Inhibition const. Ki. It is filed as biochemical, E. coli. Here is the method: (§1) When tryptophanase degraded L-tryptophan, all reaction mixtures included 0.2 mM of pyridoxal 5′-phosphate and 0.23 μM of tryptophanase in 100 mM potassium phosphate buffer of pH 8.3. DAP concentrations were prepared to the required concentrations of 0, 0.6, 1.2, 1.9 or 3.1 M. L-tryptophan. The reaction mixture was prepared to a concentration of 98, 108, 128, 137, 147, 167, 196, 225, 245, 294, 343, 392, 490, 680 or 980μM for kinetic analyses. Reactions were performed at 37 °C for 30 min in a Dry Thermo Unit DTU-1B (Taitec, Tokyo, Japan). Although D-tryptophan in addition to L-tryptophan was also degraded into indole in the presence of DAP, an indole production amount from D-tryptophan was neglected at this reaction temperature and time because the catalytic efficiency for D-tryptophan was 0.3% of that for L-tryptophan. On the other hand, the reaction condition of D-tryptophan degradation differed in several ways from that of L-tryptophan degradation. Each concentration of pyridoxal 5′-phosphate and tryptophanase was 1.2 mM and 0.92μM, and additionally reaction temperature and time was 55 °C and 2 h, respectively. All the other reaction conditions were the same as in the L-tryptophan degradation.
(§2) The total volume of the reaction mixture was 2 mL per tube. The reaction was stopped by adding 2 mL of n-butanol, which was vigorously mixed and then immediately centrifuged at approximately 1,000 G for 10 min. After centrifugation, the reaction mixture was separated into two layers of butanol and aqueous solutions in which indole was equally distributed. The supernatant butanol layer was extracted to be mixed with an equal volume of Ehrlich reagent, then colored red at 60 °C for 30 min in Dry Thermo Unit. […] Tryptophanase activity was assayed in triplicate at the same substrate concentration and then averaged. Initial velocity was computed based on the averaged value.
(§3) Initial velocities were defined by indole that formed within 1 minute after 1 mg of tryptophanase was added. Then the reciprocal of (initial velocity/[E] (enzyme concentration)) (ordinate) versus the reciprocal of substrate concentration (abscissa) was drawn for each concentration of L- or D-tryptophan. These double-reciprocal plots were drawn based on the least squares method to calculate kinetic parameters. Kcatwas determined from the reciprocal of the intercepts of these double-reciprocal plots, and the Michaelis constant Km from substrate concentration at 1/v = 0 in the absence of inhibitor. In noncompetitive inhibition, two inhibition constants of Ki (=[E][I]/[EI], E: enzyme; I: inhibitor; EI: enzyme-inhibitor complex) and Ki' (=[ES][I]/[ESI], ES: enzyme-substrate complex; ESI: enzyme-substrate-inhibitor complex) were determined from the slopes and from the intercepts, respectively. In the mixed type inhibition, Ki and Ki' were determined from x and y coordinates of the fixed point in the second quadrant.

The target in experiment [2] is T1, tryptophanase. Kind of experiment: D-tryptophan degradation by tryptophanase in the presence of 3.1 M DAP, kinetic and inhibition analysis. It is filed as biochemical, E. coli. The settings on record: for effect on D-tryptophan degradation: in the presence of 3.1 M DAP. Here is the method: as §1, §2, §3
[3] abbreviates: inhibitor of D-tryptophan degradation, 3.1 M DAP.
Where [4] appears, read: inhibitor of L-tryptophan degradation, DAP 0 M.
Setting [5] is: inhibitor of L-tryptophan degradation, DAP 0.6 M.
[6] abbreviates: inhibitor of L-tryptophan degradation, DAP 1.2 M.
[7] abbreviates: inhibitor of L-tryptophan degradation, DAP 1.9 M.
Where [8] appears, read: substrate L-Trp, DAP 0 M (Table 2).
The mark [9] stands for this setting: substrate L-Trp, DAP 0.6 M (Table 2).
[10] abbreviates: substrate L-Trp, DAP 1.2 M (Table 2).

T1 sequence (P0A853 whole entry): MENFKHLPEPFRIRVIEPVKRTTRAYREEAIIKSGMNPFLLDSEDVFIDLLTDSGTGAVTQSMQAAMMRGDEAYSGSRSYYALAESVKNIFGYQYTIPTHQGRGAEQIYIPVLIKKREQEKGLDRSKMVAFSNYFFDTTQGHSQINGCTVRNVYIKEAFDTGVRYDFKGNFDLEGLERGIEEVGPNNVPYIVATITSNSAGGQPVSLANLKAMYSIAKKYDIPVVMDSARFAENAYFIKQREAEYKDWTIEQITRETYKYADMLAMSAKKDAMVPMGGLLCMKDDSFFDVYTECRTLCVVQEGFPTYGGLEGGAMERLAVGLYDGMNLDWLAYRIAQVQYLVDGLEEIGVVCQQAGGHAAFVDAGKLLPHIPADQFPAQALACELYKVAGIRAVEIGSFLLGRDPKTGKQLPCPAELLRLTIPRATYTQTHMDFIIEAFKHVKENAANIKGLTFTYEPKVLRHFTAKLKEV

In general, Ki refers to a measure of affinity in units of concentration, obtained from inhibition or displacement. As for `N[C@H](Cc1c[nH]cn1)C(=O)O` [D-histidine], on tryptophanase [1], the “effect on L-tryptophan degradation” value is “no effect; also recorded: did not interact”. On tryptophanase [2], the “effect on D-tryptophan degradation” value is “inhibited”. Further, at tryptophanase [2] (setting [3]), the Inhibition type result is recorded as “competitively inhibited” and the inhibition constant (Ki) came to 400 µM.

In the case of `N[C@H](Cc1ccccc1)C(=O)O` [D-phenylalanine], on tryptophanase [1], the “effect on L-tryptophan degradation” value was “no effect”. In addition, the “effect on D-tryptophan degradation” value at tryptophanase [2] is listed as “little”.

In the case of `N[C@H](Cc1c[nH]c2ccccc12)C(=O)O` [D-tryptophan], the “catalytic efficiency, percent of that for L-tryptophan” value on tryptophanase [1] (in the presence of DAP, 37 °C, 30 min) is 0.3%. In addition, the Inhibition type entry is “competitive inhibitor” at tryptophanase [1] (setting [4]); “mixed” at tryptophanase [1] (setting [5]); “mixed” on tryptophanase [1] (setting [6]); “mixed” at tryptophanase [1] (setting [7]); “noncompetitive inhibition type” at tryptophanase [1] (inhibitor of L-tryptophan degradation, DAP 3.1 M). The Ki was 21 mM on tryptophanase [1] (setting [4]), 25 mM at tryptophanase [1] (setting [5]), 30 mM at tryptophanase [1] (setting [6]) and 38 mM on tryptophanase [1] (setting [7]). Besides, the “Ki/Ki'” value at tryptophanase [1] (with increasing DAP concentrations (0 to 3.1 M), L-tryptophan degradation) was 0 to 1.0.

Turning to `N[C@H](Cc1ccc(O)cc1)C(=O)O` [D-tyrosine], the “effect on L-tryptophan degradation” value at tryptophanase [1] is recorded as “no effect”. Further, at tryptophanase [2], the “effect on D-tryptophan degradation” value is “no effect”.

Take `N.N.O=P(O)(O)O` [DAP, diammoniumhydrogen phosphate]: on tryptophanase [1] (DAP as inhibitor of L-tryptophan degradation), the Inhibition type result was “noncompetitive inhibitor”.

Consider `N[C@@H](Cc1c[nH]c2ccccc12)C(=O)O` [L-tryptophan], for which the “reduced values of kcat compared to the values in the absence of DAP” value on tryptophanase [1] (L-tryptophan degradation in the presence of DAP) is 18–45%.

With `O=C(O)C(=O)Cc1c[nH]c2ccccc12` [indole pyruvate], the “Ki, fold stronger than for pyruvate” value on tryptophanase [1] (L-tryptophan degradation) is reported as 15 fold. Moreover, the Inhibition type entry on tryptophanase [1] (setting [8]) is recorded as “competitive”; at tryptophanase [1] (setting [9]), “mixed”; on tryptophanase [1] (setting [10]) it was “noncompetitive”. For the same compound, the Ki at tryptophanase [1] (setting [8]), at tryptophanase [1] (setting [9]) and at tryptophanase [1] (setting [10]) was 0.2 mM each time. The “Inhibition const. Ki'” value at tryptophanase [1] (setting [9]) stood at 0.3 mM; at tryptophanase [1] (setting [10]), 0.2 mM.

Take `CC(=O)C(=O)O` [potassium pyruvate]: on tryptophanase [1] (setting [8]), the Inhibition type entry is recorded as “competitively inhibited; also recorded: competitive” and the Ki is 3 mM.
